Assay results: patent US6914045B2, “Glycopeptide antibiotics” (Wyeth Holdings Corporation, priority 2001, dated 2005)

Tests used:
Escherichia coli = assay: in vitro antibacterial evaluation, MIC by broth dilution; assay type: cell-based; conditions: 18 hours at 35° C.
Method in brief: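 MIC is the lowest antibiotic concentration (tested 64-0.06 μg/mL) preventing growth of a 5×10^5 CFU/mL inoculum. Determined by broth dilution in Mueller-Hinton II medium following NCCLS standard M7-A2.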

Staphylococcus sp. = assay: as above; assay type: cell-based; conditions: broth dilution, 18 hours at 35° C.; for MIC Staphylococcus aureus (ATCC 29213): strain ATCC 29213; for MIC Staphylococcus aureus (GC 1131): strain GC 1131; for MIC Staphylococcus aureus (GC 3051): strain GC 3051; for MIC Staphylococcus aureus (GC 3053): strain GC 3053; for MIC Staphylococcus aureus (GC 4541): strain GC 4541; for MIC Staphylococcus aureus (GC 4542): strain GC 4542; for MIC Staphylococcus aureus-SMITH (GC 4543): strain GC 4543; for MIC Staphylococcus aureus (GC 4544): strain GC 4544; for MIC Staphylococcus aureus (GC 4545): strain GC 4545; for MIC Staphylococcus haemolyticus (GC 4546): strain GC 4546; for MIC Coagulase Negative Staphylococcus (GC 4547): strain GC 4547; for MIC Coagulase Negative Staphylococcus (GC 4548): strain GC 4548; for MIC Coagulase Negative Staphylococcus (GC 4549): strain GC 4549; for MIC Coagulase Negative Staphylococcus (GC 4551): strain GC 4551
Method in brief: (§1)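 MIC, the lowest antibiotic concentration preventing growth, was read across 64-0.06 μg/mL with 5×10^5 CFU/mL inoculum. Method followed NCCLS M7-A2 broth dilution using Mueller-Hinton II; Gram-positive strains covered recent methicillin-, penicillin- and/or vancomycin-resistant clinical isolates.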

Enterococcus sp. = assay: as above; assay type: cell-based; conditions: broth dilution, 18 hours at 35° C.
Method in brief: as §1

Streptococcus sp. = assay: as above; assay type: cell-based; conditions: broth dilution, 18 hours at 35° C.
Method in brief: as §1

[1] = anatomic pathology (histopathology of heart and kidney) in mice; assay type: in vivo; conditions: CD-1 mice, 20 mg/kg intravenously daily for 9 days, necropsy day 10, microscopic histopathology
Description: Samples of tissues from necropsied mice were formalin-fixed, paraffin-embedded, sectioned, stained with hematoxylin and eosin, and examined microscopically. Histopathologic findings were recorded. These findings were subjectively graded on a scale corresponding to slight, mild, moderate, marked and severe as compared to untreated controls.

[2] = clinical pathology (serum clinical chemistry) in mice; assay type: in vivo; conditions: CD-1 mice, 20 mg/kg intravenously daily for 9 days, sera day 10
Description: 20-day-old CD-1 mice were divided into a vehicle control group (5 mice) and a treatment group (5 mice). Samples of glycopeptide antibiotics were administered at 20 mg/kg intravenously daily for 9 days.

[3] = Enterococcus faecalis (ATCC 29212)
[4] = Enterococcus faecalis (GC 4552)
[5] = Enterococcus faecalis (GC 4553)
[6] = Enterococcus faecalis (GC 4554)
[7] = Enterococcus faecalis (GC 6189)

CC(c1ccccc1)C1NC(=O)CNC(=O)C(CO)NC(=O)C(C(O)C2CN(Cc3ccccc3-c3ccccc3)C(=N)N2C2OC(CO)C(O)C(O)C2O)NC(=O)C(C(O)C2CNC(=N)N2)NC(=O)C(Cc2ccc(OC3OC(CO)C(OC4OC(CO)C(O)C(O)C4O)C(O)C3O)cc2)NC1=O (stereo not drawn) [Example 65]
+196%: Clinical Chemistry (Day 10) % of Control, ALT [2]
+161%: Clinical Chemistry (Day 10) % of Control, BUN [2]
+182%: Clinical Chemistry (Day 10) % of Control, AST [2]
>128 µg/mL: MIC Escherichia coli (ATCC 25922) (Escherichia coli) | MIC Escherichia coli (GC 4559) (Escherichia coli) | MIC Staphylococcus aureus (ATCC 29213) (Staphylococcus sp.) | MIC Staphylococcus aureus (GC 1131) (Staphylococcus sp.) | MIC Staphylococcus aureus (GC 3051) (Staphylococcus sp.) | MIC Staphylococcus aureus (GC 3053) (Staphylococcus sp.) | MIC Staphylococcus aureus (GC 4541) (Staphylococcus sp.) | MIC Staphylococcus aureus (GC 4542) (Staphylococcus sp.) | MIC Staphylococcus aureus-SMITH (GC 4543) (Staphylococcus sp.) | MIC Staphylococcus aureus (GC 4544) (Staphylococcus sp.) | MIC Staphylococcus aureus (GC 4545) (Staphylococcus sp.) | MIC Staphylococcus haemolyticus (GC 4546) (Staphylococcus sp.) | MIC Coagulase Negative Staphylococcus (GC 4547) (Staphylococcus sp.) | MIC Coagulase Negative Staphylococcus (GC 4548) (Staphylococcus sp.) | MIC Coagulase Negative Staphylococcus (GC 4549) (Staphylococcus sp.) | MIC Coagulase Negative Staphylococcus (GC 4551) (Staphylococcus sp.) | MIC Enterococcus faecalis (ATCC 29212) (Enterococcus sp.; [3]) | MIC Enterococcus faecalis (GC 4552) (Enterococcus sp.; [4]) | MIC Enterococcus faecalis (GC 4554) (Enterococcus sp.; [6]) | MIC Enterococcus faecalis (GC 6189) (Enterococcus sp.; [7]) | MIC Enterococcus faecium (GC 4556) (Enterococcus sp.; Enterococcus faecium (GC 4556)) | MIC Enterococcus faecalis (ATCC 29212) (Enterococcus sp.) | MIC Enterococcus faecalis (GC 2242) (Enterococcus sp.) | MIC Enterococcus faecalis (GC 2691) (Enterococcus sp.) | MIC Enterococcus faecalis (GC 3059) (Enterococcus sp.) | MIC Enterococcus faecalis (GC 4552) (Enterococcus sp.) | MIC Enterococcus faecalis (GC 4554) (Enterococcus sp.) | MIC Enterococcus faecalis (GC 6189) (Enterococcus sp.) | MIC Enterococcus faecium (GC 4556) (Enterococcus sp.) | MIC Enterococcus faecalis (GC 2242) (Enterococcus sp.; strain GC 2242) | MIC Enterococcus faecalis (GC 2691) (Enterococcus sp.; strain GC 2691) | MIC Enterococcus faecalis (GC 3059) (Enterococcus sp.; strain GC 3059) | MIC Streptococcus agalactiae (GC 4564) (Streptococcus sp.) | MIC Streptococcus agalactiae (GC 4564) (Streptococcus sp.; strain GC 4564)
+++: Anatomical Pathology (Day 10), Kidney [1]
128 µg/mL: MIC Enterococcus avium (GC 4558) (Enterococcus sp.; Enterococcus avium (GC 4558)) | MIC Enterococcus faecalis (GC 4553) (Enterococcus sp.; [5]) | MIC Enterococcus faecium (GC 2243) (Enterococcus sp.; Enterococcus faecium (GC 2243)) | MIC Enterococcus faecium (GC 4557) (Enterococcus sp.; Enterococcus faecium (GC 4557)) | MIC Enterococcus avium (GC 4558) (Enterococcus sp.) | MIC Enterococcus faecalis (GC 4553) (Enterococcus sp.) | MIC Enterococcus faecium (GC 2243) (Enterococcus sp.) | MIC Enterococcus faecium (GC 4557) (Enterococcus sp.) | MIC Streptococcus pneumoniae (ATCC 6301) (Streptococcus sp.) | MIC Streptococcus pneumoniae (GC 1894) (Streptococcus sp.) | MIC Streptococcus pneumoniae (GC 4565) (Streptococcus sp.) | MIC Streptococcus pyogenes (GC 4563) (Streptococcus sp.) | MIC Streptococcus pneumoniae (ATCC 6301) (Streptococcus sp.; strain ATCC 6301) | MIC Streptococcus pneumoniae (GC 1894) (Streptococcus sp.; strain GC 1894) | MIC Streptococcus pyogenes (GC 4563) (Streptococcus sp.; strain GC 4563) | MIC Streptococcus pneumoniae (GC 4565) (Streptococcus sp.; strain GC 4565)
0: Anatomical Pathology (Day 10), Heart [1]
32 µg/mL: MIC Escherichia coli (GC 4560) (Escherichia coli)

CC(c1ccccc1)C1NC(=O)CNC(=O)C(CO)NC(=O)C(C(O)C2CN(CCCCCCCCCCC(=O)O)C(=N)N2C2OC(CO)C(O)C(O)C2O)NC(=O)C(C(O)C2CNC(=N)N2)NC(=O)C(Cc2ccc(OC3OC(CO)C(OC4OC(CO)C(O)C(O)C4O)C(O)C3O)cc2)NC1=O (stereo not drawn) [Example 72, Cyclo[glycyl-β-methylphenylalanyl-O-(4-O-hexopyranosylhexopyranosyl)tyrosyl-3-(2-iminoimidazolidin-4-yl)seryl-3-[1-(10-carboxydecyl)-3-hexopyranosyl-2-iminoimidazolidin-4-yl]serylseryl]]
>128 µg/mL: MIC Escherichia coli (ATCC 25922) (Escherichia coli) | MIC Escherichia coli (GC 4559) (Escherichia coli) | MIC Staphylococcus aureus (ATCC 29213) (Staphylococcus sp.) | MIC Staphylococcus aureus (GC 1131) (Staphylococcus sp.) | MIC Staphylococcus aureus (GC 3051) (Staphylococcus sp.) | MIC Staphylococcus aureus (GC 3053) (Staphylococcus sp.) | MIC Staphylococcus aureus (GC 4541) (Staphylococcus sp.) | MIC Staphylococcus aureus (GC 4542) (Staphylococcus sp.) | MIC Staphylococcus aureus-SMITH (GC 4543) (Staphylococcus sp.) | MIC Staphylococcus aureus (GC 4544) (Staphylococcus sp.) | MIC Staphylococcus aureus (GC 4545) (Staphylococcus sp.) | MIC Staphylococcus haemolyticus (GC 4546) (Staphylococcus sp.) | MIC Coagulase Negative Staphylococcus (GC 4547) (Staphylococcus sp.) | MIC Coagulase Negative Staphylococcus (GC 4548) (Staphylococcus sp.) | MIC Coagulase Negative Staphylococcus (GC 4549) (Staphylococcus sp.) | MIC Coagulase Negative Staphylococcus (GC 4551) (Staphylococcus sp.) | MIC Coagulase Negative Staphylococcus (GC 6257) (Staphylococcus sp.; strain GC 6257) | MIC Enterococcus faecalis (ATCC 29212) (Enterococcus sp.; [3]) | MIC Enterococcus faecalis (GC 4552) (Enterococcus sp.; [4]) | MIC Enterococcus faecalis (GC 4554) (Enterococcus sp.; [6]) | MIC Enterococcus faecalis (GC 6189) (Enterococcus sp.; [7]) | MIC Enterococcus faecium (GC 2243) (Enterococcus sp.; Enterococcus faecium (GC 2243)) | MIC Enterococcus faecium (GC 4556) (Enterococcus sp.; Enterococcus faecium (GC 4556)) | MIC Enterococcus faecalis (ATCC 29212) (Enterococcus sp.) | MIC Enterococcus faecalis (GC 2242) (Enterococcus sp.) | MIC Enterococcus faecalis (GC 2691) (Enterococcus sp.) | MIC Enterococcus faecalis (GC 3059) (Enterococcus sp.) | MIC Enterococcus faecalis (GC 4552) (Enterococcus sp.) | MIC Enterococcus faecalis (GC 4554) (Enterococcus sp.) | MIC Enterococcus faecalis (GC 6189) (Enterococcus sp.) | MIC Enterococcus faecium (GC 2243) (Enterococcus sp.) | MIC Enterococcus faecium (GC 4556) (Enterococcus sp.) | MIC Enterococcus faecalis (GC 2242) (Enterococcus sp.; strain GC 2242) | MIC Enterococcus faecalis (GC 2691) (Enterococcus sp.; strain GC 2691) | MIC Enterococcus faecalis (GC 3059) (Enterococcus sp.; strain GC 3059)
++: Anatomical Pathology (Day 10), Kidney [1]
64 µg/mL: MIC Enterococcus avium (GC 4558) (Enterococcus sp.; Enterococcus avium (GC 4558)) | MIC Enterococcus faecalis (GC 4553) (Enterococcus sp.; [5]) | MIC Enterococcus avium (GC 4558) (Enterococcus sp.) | MIC Enterococcus faecalis (GC 4553) (Enterococcus sp.) | MIC Streptococcus pneumoniae (ATCC 6301) (Streptococcus sp.) | MIC Streptococcus pneumoniae (GC 4565) (Streptococcus sp.) | MIC Streptococcus pyogenes (GC 4563) (Streptococcus sp.) | MIC Streptococcus pneumoniae (ATCC 6301) (Streptococcus sp.; strain ATCC 6301) | MIC Streptococcus pyogenes (GC 4563) (Streptococcus sp.; strain GC 4563) | MIC Streptococcus pneumoniae (GC 4565) (Streptococcus sp.; strain GC 4565)
32 µg/mL: MIC Escherichia coli (GC 4560) (Escherichia coli)
16 µg/mL: MIC Streptococcus pneumoniae (GC 1894) (Streptococcus sp.) | MIC Streptococcus pneumoniae (GC 1894) (Streptococcus sp.; strain GC 1894)
+122%: Clinical Chemistry (Day 10) % of Control, BUN [2]
128 µg/mL: MIC Enterococcus faecium (GC 4557) (Enterococcus sp.; Enterococcus faecium (GC 4557)) | MIC Enterococcus faecium (GC 4557) (Enterococcus sp.) | MIC Streptococcus agalactiae (GC 4564) (Streptococcus sp.) | MIC Streptococcus agalactiae (GC 4564) (Streptococcus sp.; strain GC 4564)
0: Anatomical Pathology (Day 10), Heart [1]
